Patent US20190167675A1, “METHODS AND COMPOSITIONS FOR APPETITE CONTROL AND WEIGHT MANAGEMENT” (SHANGHAI YAO YUAN BIOTECHNOLOGY CO., LTD., priority 2016, published 2019)
Entries after “also recorded” stand apart in the source; their conditions may differ.

Key:
ASICs [1] = conditions: in vitro; cited from earlier work
ASIC = conditions: cited from earlier work
heteromeric ASIC1a/2b = biological target: T1, heteromeric ASIC1a/2b (Homo sapiens, UniProt P78348+Q16515); conditions: cited from earlier work
T1 sequence (P78348 1-528): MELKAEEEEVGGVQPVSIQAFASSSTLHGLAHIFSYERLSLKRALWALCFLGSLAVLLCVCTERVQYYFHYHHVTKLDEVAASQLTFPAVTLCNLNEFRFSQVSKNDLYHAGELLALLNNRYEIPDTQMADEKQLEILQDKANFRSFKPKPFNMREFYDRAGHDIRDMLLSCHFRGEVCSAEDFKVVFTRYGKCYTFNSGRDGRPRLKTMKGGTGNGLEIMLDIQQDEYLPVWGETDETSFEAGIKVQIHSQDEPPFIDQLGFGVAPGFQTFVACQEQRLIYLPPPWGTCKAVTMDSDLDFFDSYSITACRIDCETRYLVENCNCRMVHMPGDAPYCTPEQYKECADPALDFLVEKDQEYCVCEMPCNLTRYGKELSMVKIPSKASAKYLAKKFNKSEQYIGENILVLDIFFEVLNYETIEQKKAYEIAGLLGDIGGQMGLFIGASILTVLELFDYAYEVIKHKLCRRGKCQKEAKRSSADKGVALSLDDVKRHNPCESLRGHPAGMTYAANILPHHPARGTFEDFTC
T1 sequence (Q16515 1-563 isoform Q16515-2): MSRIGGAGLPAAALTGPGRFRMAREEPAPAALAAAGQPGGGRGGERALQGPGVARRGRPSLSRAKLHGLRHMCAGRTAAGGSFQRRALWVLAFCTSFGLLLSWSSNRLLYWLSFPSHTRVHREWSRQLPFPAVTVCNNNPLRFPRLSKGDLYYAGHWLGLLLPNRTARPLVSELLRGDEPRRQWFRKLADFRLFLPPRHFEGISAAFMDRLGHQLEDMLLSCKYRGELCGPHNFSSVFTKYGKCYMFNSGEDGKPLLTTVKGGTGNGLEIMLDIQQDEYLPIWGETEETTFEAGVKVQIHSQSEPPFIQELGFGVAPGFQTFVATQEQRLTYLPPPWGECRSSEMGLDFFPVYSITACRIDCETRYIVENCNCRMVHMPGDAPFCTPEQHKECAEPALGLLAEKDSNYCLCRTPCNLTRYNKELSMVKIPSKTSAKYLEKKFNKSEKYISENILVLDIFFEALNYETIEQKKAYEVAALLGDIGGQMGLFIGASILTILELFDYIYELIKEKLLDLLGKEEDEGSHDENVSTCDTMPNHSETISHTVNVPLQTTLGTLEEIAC

[2] = mice; i.t., i.c.v., intraplantar or intravenous; cited from earlier work
homomeric ASIC1a = biological target: T2, homomeric ASIC1a (Homo sapiens, UniProt P78348); conditions: cited from earlier work
T2 sequence (P78348 1-528): T1 sequence (P78348 1-528)

DEG/ENaC ion channels = test: Short-term food intake in normal mice; assay type: in vivo, C57BL6 mice; conditions: 15 minutes before feeding
Protocol: 13 weeks old C57BL6 Female and male mice were singly housed for 2 weeks before the experiment. Mice were starved Sam-6 μm. […] The administrated volume was 10 ml/kg body weight. 15 minutes later, normal chow solid food was provided to the mice and the food consumption at designated time points were measured. P-values were calculated using t-test (unpaired, 2 tails) for data points. *=p<0.05, **=p<0.01, ***=p<0.001
15 weeks old C57BL6 female mice were singly housed for 2 weeks before the experiment. Mice were starved Sam-6 μm. Then Benzamil (Benzamil hydrochloride hydrate) was administrated by intraperitoneal injection, 0.01-10 μmole/kg body weight (3.5621 μg 3.5621 mg/kg b.w.), or saline. The administrated volume was 10 ml/kg body weight. 15 minutes later, normal chow solid food was provided to the mice and the food consumption at designated time points were measured.

[3] = Weight change in LepR^PB obese mice; assay type: in vivo, LepR^PB female mice; conditions: oral gavage 6 times a week for 5 weeks, 4.1 mg/kg/day Day 1-14, 12.3 mg/kg/day Day 15-35; by day 35
Protocol: 8 weeks old LepR^PB female mice were used in the experiment. LepR^PB mouse is a model of obesity, which carries a mutation in the gene for the leptin receptor. 20 mice were randomly divided into two groups. […] Amiloride was dissolved in DMSO and diluted in sterile water. […] The injection volume was 10 ml/kg. The mice in control group received 82 μl DMSO/kg/day in sterile water. Body weight was measured. The weight changes compared to the body weight on Day 14 were analyzed.

ASICs [4] = conditions: cited from earlier work
[5] = Body composition by NMR in LepR^PB obese mice; assay type: in vivo, LepR^PB female mice; conditions: before and after 5-week administration
ENaC = biological target: T3, ENaC (Homo sapiens, UniProt P37088+P51168+P51170); conditions: in vitro and in vivo; cited from earlier work
T3 sequence (P37088 1-669): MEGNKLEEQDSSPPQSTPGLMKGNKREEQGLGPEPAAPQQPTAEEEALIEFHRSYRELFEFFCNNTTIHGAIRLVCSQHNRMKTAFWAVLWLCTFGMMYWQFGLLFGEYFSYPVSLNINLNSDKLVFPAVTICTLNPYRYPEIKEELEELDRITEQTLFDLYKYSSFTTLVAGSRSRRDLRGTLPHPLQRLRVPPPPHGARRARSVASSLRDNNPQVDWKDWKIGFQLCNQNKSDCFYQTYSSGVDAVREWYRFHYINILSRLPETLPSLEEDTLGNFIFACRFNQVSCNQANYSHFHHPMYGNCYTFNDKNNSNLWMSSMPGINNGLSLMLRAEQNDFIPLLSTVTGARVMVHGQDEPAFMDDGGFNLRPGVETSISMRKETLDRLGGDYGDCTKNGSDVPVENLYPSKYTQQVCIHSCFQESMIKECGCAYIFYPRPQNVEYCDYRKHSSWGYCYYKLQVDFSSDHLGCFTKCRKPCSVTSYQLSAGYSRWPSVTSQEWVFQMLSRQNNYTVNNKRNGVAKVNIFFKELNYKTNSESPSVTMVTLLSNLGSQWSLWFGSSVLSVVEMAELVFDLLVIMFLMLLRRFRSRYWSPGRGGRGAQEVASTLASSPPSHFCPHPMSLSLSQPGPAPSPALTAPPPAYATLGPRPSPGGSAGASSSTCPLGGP
T3 sequence (P51168 1-640): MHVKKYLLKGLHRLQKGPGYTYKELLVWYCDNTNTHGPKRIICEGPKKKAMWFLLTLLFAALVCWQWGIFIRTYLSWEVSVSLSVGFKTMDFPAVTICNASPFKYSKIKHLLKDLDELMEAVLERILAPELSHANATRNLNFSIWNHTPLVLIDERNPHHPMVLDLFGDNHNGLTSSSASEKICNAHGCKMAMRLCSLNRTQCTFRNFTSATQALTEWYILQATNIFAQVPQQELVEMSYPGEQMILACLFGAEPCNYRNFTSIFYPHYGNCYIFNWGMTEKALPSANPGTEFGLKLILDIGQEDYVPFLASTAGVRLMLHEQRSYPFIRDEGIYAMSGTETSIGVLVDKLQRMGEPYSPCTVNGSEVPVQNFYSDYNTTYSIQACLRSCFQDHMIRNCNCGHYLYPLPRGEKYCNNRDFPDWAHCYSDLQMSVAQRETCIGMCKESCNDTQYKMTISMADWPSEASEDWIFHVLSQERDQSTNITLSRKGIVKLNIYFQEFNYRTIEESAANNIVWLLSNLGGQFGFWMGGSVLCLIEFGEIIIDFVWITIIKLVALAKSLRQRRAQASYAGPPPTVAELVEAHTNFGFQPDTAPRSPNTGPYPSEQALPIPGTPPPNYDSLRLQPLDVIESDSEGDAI
T3 sequence (P51170 1-649): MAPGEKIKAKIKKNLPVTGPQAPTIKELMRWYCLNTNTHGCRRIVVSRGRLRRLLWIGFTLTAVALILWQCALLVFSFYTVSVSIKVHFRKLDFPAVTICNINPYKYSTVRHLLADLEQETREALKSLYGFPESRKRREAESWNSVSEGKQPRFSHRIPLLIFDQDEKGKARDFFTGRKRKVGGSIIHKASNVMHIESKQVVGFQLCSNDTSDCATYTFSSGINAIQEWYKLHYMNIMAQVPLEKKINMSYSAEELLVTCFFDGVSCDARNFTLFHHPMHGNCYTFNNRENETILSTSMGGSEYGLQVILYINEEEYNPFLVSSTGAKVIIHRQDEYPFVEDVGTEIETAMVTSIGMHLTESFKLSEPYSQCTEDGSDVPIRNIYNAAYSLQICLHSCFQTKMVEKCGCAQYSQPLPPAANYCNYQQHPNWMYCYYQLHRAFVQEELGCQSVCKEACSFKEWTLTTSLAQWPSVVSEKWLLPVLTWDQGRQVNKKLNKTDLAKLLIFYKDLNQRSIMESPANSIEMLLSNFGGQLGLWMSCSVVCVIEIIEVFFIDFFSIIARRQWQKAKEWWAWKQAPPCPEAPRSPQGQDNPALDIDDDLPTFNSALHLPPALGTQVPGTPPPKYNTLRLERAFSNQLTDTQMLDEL

[6] = guinea pig TPD model; cited from earlier work
ASICs [7] = conditions: Rat DRG neurons, in vitro; cited from earlier work

Compound: N=C(N)c1ccc(/N=N/Nc2ccc(C(=N)N)cc2)cc1 [diminazene]
- ASICs blockage activity (ASICs [1]): potent ASICs blockage activity

Compound: CC(C)C1c2cc(/C=C/c3ccc4cc(C(=N)N)ccc4c3)ccc2CCN1C (stereo not drawn) [10a]
- potency relative to A-317567 (ASIC): about 3 fold

Compound: PcTx1
- inhibition of heteromeric ASIC1a/2b (heteromeric ASIC1a/2b): nanomolar potency
- excitotoxicity, spasms, convulsions, motor paralysis, ataxia upon in vivo injections [2]: never produce excitotoxicity, spasms, convulsions, motor paralysis, nor ataxia
- inhibition of homomeric ASIC1a (homomeric ASIC1a): nanomolar potency

Compound: CC(C)C1c2cc(C#Cc3ccc4cc(C(=N)N)ccc4c3)ccc2CCN1C (stereo not drawn) [10b]
- potency relative to A-317567 (ASIC): about 3 fold

Compound: APETx2
- excitotoxicity, spasms, convulsions, motor paralysis, ataxia upon in vivo injections [2]: never produce excitotoxicity, spasms, convulsions, motor paralysis, nor ataxia

Compound: N=C(N)c1ccc(OCCCCCOc2ccc(C(=N)N)cc2)cc1 [pentamidine]
- ASICs blockage activity (ASICs [1]): potent ASICs blockage activity

Compound: NC(N)=NC(=O)c1nc(Cl)c(N)nc1N [Amiloride, 3,5-diamino-6-chloro-N-(diaminomethylidene)pyrazine-2-carboxamide]
- short-term food intake (DEG/ENaC ion channels; intraperitoneal, 1, 10 or 100 μmole/kg, male C57BL6 mice): suppressed short-term food intake
- short-term food intake (DEG/ENaC ion channels; oral gavage, 1, 10 or 100 μmole/kg, female C57BL6 mice): suppressed short-term food intake
- body weight change compared to Day 14, vs DMSO [3]: significant reductions in body weight; also recorded: clear reduction in weight
- IC50 (ASICs [4]): 10 to 100 µM
- reduction in body fat percentage vs DMSO [5]: significantly more reduction
- reduction in body fluid percentage vs DMSO [5]: not significantly different; also recorded: no significant difference

Compound: N=C(N)c1ccc(-c2cc3ccc(C(=N)N)cc3[nH]2)cc1 [DAPI, 4′,6-diamidino-2-phenylindole]
- ASICs blockage activity (ASICs [1]): potent ASICs blockage activity

Compound: N=C(NC(=O)c1nc(Cl)c(N)nc1N)NC1CCN(C(=O)c2ccc(C(=O)N3CCC(NC(=N)NC(=O)c4nc(Cl)c(N)nc4N)CC3)cc2)CC1 [NVP-QBE170]
- blockage of ENaC (ENaC): potent and selective blockage of ENaC
- safety window over existing ENaC blockers, in terms of hyperkalaemia [6]: significantly enhanced safety window

Compound: CC(C)C1c2cc(C3CC3c3ccc4cc(C(=N)N)ccc4c3)ccc2CCN1C (stereo not drawn) [A-317567]
- potency relative to Amiloride on ASICs currents (ASICs [7]): 1.8-15 fold
